According to ChEMBL document CHEMBL1157501, “Novel fluorinated acridone derivatives. Part 1: synthesis and evaluation as potential anticancer agents” (Bioorg Med Chem Lett, 2008):

Tests used:
HOP-92 [1] = assay: Anticancer activity against human HOP92 cells; format: functional
HT-29 [2] = assay: Anticancer activity against human HT29 cells; format: functional
SK-OV-3 = assay: Anticancer activity against human SKOV3 cells; format: functional
HOP-92 [3] = assay: Growth inhibition of human HOP92 cells at 10 uM relative to control; format: functional
TK-10 = assay: Anticancer activity against human TK10 cells; format: functional
MDA-MB-435 = assay: Anticancer activity against human MDA-MB-435 cells; format: functional
HOP-62 = assay: Anticancer activity against human HOP62 cells; format: functional
NCI/ADR-RES = assay: Anticancer activity against human NCI/ADR-RES cells; format: functional
UACC-257 [4] = assay: Growth inhibition of human UACC257 cells at 10 uM relative to control; format: functional
RPMI-8226 = assay: Anticancer activity against human RPMI8226 cells; format: functional
BT-549 = assay: Anticancer activity against human BT549 cells; format: functional
CCRF-CEM = assay: Anticancer activity against human CCRF-CEM cells; format: functional
MOLT-4 [5] = assay: Anticancer activity against human MOLT4 cells; format: functional
MDA-MB-468 = assay: Anticancer activity against human MDA-MB-468 cells; format: functional
[6] = Growth inhibition of human HL60(TB) cells at 10 uM relative to control; format: functional, HL-60(TB); conditions: HL-60
K562 = assay: Anticancer activity against human K562 cells; format: functional
A549 = assay: Anticancer activity against human A549 cells; format: functional
PC-3 = assay: Anticancer activity against human PC3 cells; format: functional
SF-539 = assay: Anticancer activity against human SF539 cells; format: functional
786-0 [7] = assay: Growth inhibition of human 786-0 cells at 10 uM relative to control; format: functional
SNB-75 [8] = assay: Anticancer activity against human SNB75 cells; format: functional
NCI-H23 = assay: Anticancer activity against human NCI-H23 cells; format: functional
OVCAR-4 = assay: Anticancer activity against human OVCAR4 cells; format: functional
SW-620 = assay: Anticancer activity against human SW620 cells; format: functional
SN12C = assay: Anticancer activity against human SN12C cells; format: functional
MCF7 [9] = assay: Growth inhibition of human MCF7 cells at 10 uM relative to control; format: functional
NCI-H522 = assay: Anticancer activity against human NCI-H522 cells; format: functional
KM12 = assay: Anticancer activity against human KM12 cells; format: functional
786-0 [10] = assay: Anticancer activity against human 786-0 cells; format: functional
UACC-257 [11] = assay: Anticancer activity against human UACC257 cells; format: functional
NCI-H322M = assay: Anticancer activity against human NCI-H322M cells; format: functional
SK-MEL-28 [12] = assay: Anticancer activity against human SK-MEL-28 cells; format: functional
IGROV-1 = assay: Anticancer activity against human IGROV1 cells; format: functional
SF-295 [13] = assay: Anticancer activity against human SF295 cells; format: functional
DU-145 = assay: Anticancer activity against human DU145 cells; format: functional
SNB-19 = assay: Anticancer activity against human SNB19 cells; format: functional
HCC 2998 = assay: Anticancer activity against human HCC2998 cells; format: functional
T47D [14] = assay: Anticancer activity against human T47D cells; format: functional
COLO 205 = assay: Anticancer activity against human COLO205 cells; format: functional
T47D [15] = assay: Growth inhibition of human T47D cells at 10 uM relative to control; format: functional
MDA-MB-231 = assay: Anticancer activity against human MDA-MB-231 cells; format: functional
SNB-75 [16] = assay: Growth inhibition of human SNB75 cells at 10 uM relative to control; format: functional
NCI-H460 = assay: Anticancer activity against human NCI-H460 cells; format: functional
HT-29 [17] = assay: Growth inhibition of human HT29 cells at 10 uM relative to control; format: functional
U-251 = assay: Anticancer activity against human U251 cells; format: functional
OVCAR-5 = assay: Anticancer activity against human OVCAR5 cells; format: functional
UACC-62 = assay: Anticancer activity against human UACC62 cells; format: functional
MOLT-4 [18] = assay: Growth inhibition of human MOLT4 cells at 10 uM relative to control; format: functional
OVCAR-3 = assay: Anticancer activity against human OVCAR-3 cells; format: functional
CAKI-1 [19] = assay: Anticancer activity against human CAKI1 cells; format: functional
MCF7 [20] = assay: Anticancer activity against human MCF7 cells; format: functional
CAKI-1 [21] = assay: Growth inhibition of human CAKI1 cells at 10 uM relative to control; format: functional
A498 = assay: Anticancer activity against human A498 cells; format: functional
OVCAR-8 = assay: Anticancer activity against human OVCAR8 cells; format: functional
HCT-116 [22] = assay: Anticancer activity against human HCT116 cells; format: functional
SK-MEL-28 [23] = assay: Growth inhibition of human SK-MEL-28 cells at 10 uM relative to control; format: functional
Hs-578T = assay: Anticancer activity against human HS578T cells; format: functional
HCT-15 = assay: Anticancer activity against human HCT15 cells; format: functional
SF-295 [24] = assay: Growth inhibition of human SF295 cells at 10 uM relative to control; format: functional
NCI-H226 = assay: Anticancer activity against human NCI-H226 cells; format: functional
HCT-116 [25] = assay: Growth inhibition of human HCT116 cells at 10 uM relative to control; format: functional
LOX IMVI = assay: Anticancer activity against human LOX IMVI cells; format: functional
ACHN = assay: Anticancer activity against human ACHN cells; format: functional
SK-MEL-5 = assay: Anticancer activity against human SK-MEL-5 cells; format: functional
[26] = Anticancer activity against human HL60(TB) cells; format: functional; conditions: HL-60
Malme-3M = assay: Anticancer activity against human MALME-3M cells; format: functional
SF-268 = assay: Anticancer activity against human SF268 cells; format: functional
M14 = assay: Anticancer activity against human M14 cells; format: functional
UO-31 = assay: Anticancer activity against human UO31 cells; format: functional
EKVX = assay: Anticancer activity against human EKVX cells; format: functional

Q: For `O=C1CC(C(F)(F)F)Cc2nc3c(Br)cc(Br)cc3cc21` (stereo not given), which GI50 (HOP-92 [1]) is on record?
A: The GI50 was 11.2 µM.

Q: And the GI50 (HT-29 [2])?
A: Its GI50 is 4.42 µM.

Q: What about the GI50 (SK-OV-3) of the same molecule?
A: The GI50 was 7.55 µM.

Q: And the inhibition at 10 µM (HOP-92 [3])?
A: The inhibition at 10 µM was 57%.

Q: And the GI50 (TK-10)?
A: Its GI50 is 7.89 µM.

Q: What about the GI50 (MDA-MB-435) of the same molecule?
A: The GI50 was 1.56 µM.

Q: And the GI50 (HOP-62)?
A: Its GI50 is 4.52 µM.

Q: What about the GI50 (NCI/ADR-RES) of the same molecule?
A: Its GI50 is 2.55 µM.

Q: What about the inhibition at 10 µM (UACC-257 [4]) of the same molecule?
A: Its inhibition at 10 µM is 39%.

Q: What about the GI50 (RPMI-8226) of the same molecule?
A: Its GI50 is 4.32 µM.

Q: And the GI50 (BT-549)?
A: The GI50 was 4.63 µM.

Q: What about the GI50 (CCRF-CEM) of the same molecule?
A: Its GI50 is 21.9 µM.

Q: What about the GI50 (MOLT-4 [5]) of the same molecule?
A: Its GI50 is 20.8 µM.

Q: What about the GI50 (MDA-MB-468) of the same molecule?
A: The GI50 was 5.11 µM.

Q: And the inhibition at 10 µM [6]?
A: Its inhibition at 10 µM is 58%.

Q: And the GI50 (K562)?
A: The GI50 was 6.23 µM.

Q: What about the GI50 (A549) of the same molecule?
A: The GI50 was 4.65 µM.

Q: And the GI50 (PC-3)?
A: The GI50 was 5.75 µM.

Q: What about the GI50 (SF-539) of the same molecule?
A: Its GI50 is 2.85 µM.

Q: What about the inhibition at 10 µM (786-0 [7]) of the same molecule?
A: The inhibition at 10 µM was 54%.

Q: And the GI50 (SNB-75 [8])?
A: The GI50 was 1.46 µM.

Q: And the GI50 (NCI-H23)?
A: The GI50 was 3.14 µM.

Q: And the GI50 (OVCAR-4)?
A: Its GI50 is 6.49 µM.

Q: What about the GI50 (SW-620) of the same molecule?
A: The GI50 was 15.7 µM.

Q: And the GI50 (SN12C)?
A: Its GI50 is 8.82 µM.

Q: What about the inhibition at 10 µM (MCF7 [9]) of the same molecule?
A: Its inhibition at 10 µM is 41%.

Q: And the GI50 (NCI-H522)?
A: The GI50 was 11.1 µM.

Q: What about the GI50 (KM12) of the same molecule?
A: The GI50 was 2.02 µM.

Q: What about the GI50 (786-0 [10]) of the same molecule?
A: Its GI50 is 8.12 µM.

Q: And the GI50 (UACC-257 [11])?
A: Its GI50 is 16.1 µM.

Q: And the GI50 (NCI-H322M)?
A: Its GI50 is 6.26 µM.

Q: And the GI50 (SK-MEL-28 [12])?
A: The GI50 was 8.98 µM.

Q: What about the GI50 (IGROV-1) of the same molecule?
A: The GI50 was 1.29 µM.

Q: And the GI50 (SF-295 [13])?
A: The GI50 was 2.96 µM.

Q: And the GI50 (DU-145)?
A: The GI50 was 4.13 µM.

Q: And the GI50 (SNB-19)?
A: Its GI50 is 11.3 µM.

Q: What about the GI50 (HCC 2998) of the same molecule?
A: Its GI50 is 2.6 µM.

Q: What about the GI50 (T47D [14]) of the same molecule?
A: The GI50 was 3.55 µM.

Q: What about the GI50 (COLO 205) of the same molecule?
A: Its GI50 is 3.23 µM.

Q: And the inhibition at 10 µM (T47D [15])?
A: Its inhibition at 10 µM is 66%.

Q: And the GI50 (MDA-MB-231)?
A: The GI50 was 5.89 µM.

Q: What about the inhibition at 10 µM (SNB-75 [16]) of the same molecule?
A: The inhibition at 10 µM was 76%.

Q: And the GI50 (NCI-H460)?
A: The GI50 was 3.1 µM.

Q: And the inhibition at 10 µM (HT-29 [17])?
A: Its inhibition at 10 µM is 77%.

Q: And the GI50 (U-251)?
A: The GI50 was 11.9 µM.

Q: And the GI50 (OVCAR-5)?
A: The GI50 was 1.91 µM.

Q: And the GI50 (UACC-62)?
A: Its GI50 is 9.87 µM.

Q: And the inhibition at 10 µM (MOLT-4 [18])?
A: The inhibition at 10 µM was 31%.

Q: What about the GI50 (OVCAR-3) of the same molecule?
A: Its GI50 is 1.79 µM.

Q: What about the GI50 (CAKI-1 [19]) of the same molecule?
A: Its GI50 is 5.03 µM.

Q: What about the GI50 (MCF7 [20]) of the same molecule?
A: Its GI50 is 0.13 µM.

Q: What about the inhibition at 10 µM (CAKI-1 [21]) of the same molecule?
A: The inhibition at 10 µM was 44%.

Q: What about the GI50 (A498) of the same molecule?
A: Its GI50 is 2.69 µM.

Q: And the GI50 (OVCAR-8)?
A: Its GI50 is 26 µM.

Q: What about the GI50 (HCT-116 [22]) of the same molecule?
A: Its GI50 is 4.03 µM.

Q: What about the inhibition at 10 µM (SK-MEL-28 [23]) of the same molecule?
A: The inhibition at 10 µM was 40%.

Q: And the GI50 (Hs-578T)?
A: Its GI50 is 16.3 µM.

Q: And the GI50 (HCT-15)?
A: The GI50 was 3.35 µM.

Q: And the inhibition at 10 µM (SF-295 [24])?
A: The inhibition at 10 µM was 61%.

Q: And the GI50 (NCI-H226)?
A: Its GI50 is 10.7 µM.

Q: What about the inhibition at 10 µM (HCT-116 [25]) of the same molecule?
A: The inhibition at 10 µM was 64%.

Q: What about the GI50 (LOX IMVI) of the same molecule?
A: The GI50 was 19 µM.

Q: And the GI50 (ACHN)?
A: Its GI50 is 17.5 µM.

Q: And the GI50 (SK-MEL-5)?
A: The GI50 was 5.03 µM.

Q: What about the GI50 [26] of the same molecule?
A: The GI50 was 2.94 µM.

Q: And the GI50 (Malme-3M)?
A: The GI50 was 7.15 µM.

Q: What about the GI50 (SF-268) of the same molecule?
A: The GI50 was 4.35 µM.

Q: What about the GI50 (M14) of the same molecule?
A: The GI50 was 5.47 µM.

Q: What about the GI50 (UO-31) of the same molecule?
A: The GI50 was 3.86 µM.

Q: And the GI50 (EKVX)?
A: The GI50 was 3.54 µM.
